Results reported in US12473258B2, “Crystal form of pyridinylphenyl compound and preparation method therefor” (ZHUHAI UNITED LABORATORIES CO., LTD., priority 2020, dated 2025).

Columns and labels:
[1] = Tolerability of eye drops after administration in animals; format: in vivo; conditions: eye drops with the highest concentration
[2] = tested on: dry eye model of rat induced by hypertonic sodium chloride solution; test: Hyperosmolar dry eye model of rats induced by hypertonic sodium chloride solution, eye drop administration; format: in vivo, SD rats
Experimental: 20 female SD rats qualified for the adaptability observation were subjected to the scoring of fluorescent staining of the cornea and measurement of tear secretion amount of both eyes for the animals, and animals with abnormalities of problematic fluorescent staining of the cornea and significant differences in tear secretion amount were excluded.
A pipette was used to draw 20 μL of sodium chloride solution (osmotic pressure of 500 mOsmol/L), which was dropped into the conjunctival sac of both eyes of the animal, 5 times/day, 20 μL/time, with an interval of about 2 hours between each time, for 28 consecutive days. After dropping the solution, the animal's eyelids were passively closed for about 90 s. On the 14th day of the modeling period, the animals were subjected to scoring of fluorescent staining of the cornea of both eyes and measurement of tear secretion amount, and the data were compared with the basic data, and the animals with significant differences in tear secretion amount of both eyes were selected for grouping.
, the tear secretion amount of both eyes was measured, and the scoring of fluorescent staining of the cornea […]

[3] = Pre-stability experiment of the crystal form (influencing factors and accelerated conditions, crystal form by XRPD); format: physicochemical
Experimental: X-Ray Powder Diffractometer (XRPD) Method in the Present Disclosure
Instrument model: Bruker D8 Advance X-ray diffractometer
Test method: About 10 mg of sample is used for XRPD test.
The detailed XRPD parameters are as follows:
The samples were fully exposed. Samples under the test condition of 40° C., 25° C./92.5% RH, light, light control were taken at 5 days and 10 days for analysis, and samples under the accelerated condition were taken at 1 month, 2 months and 3 months for analysis.

[4] = tested on: dry eye model of mice induced by scopolamine hydrobromide solution; test: Dry eye model of mice induced by subcutaneous scopolamine hydrobromide solution, eye drop administration; format: in vivo, C57BL/6 mice
Experimental: The grouping day was recorded as DO. After divided into groups, Animals in each group were subjected to modeling, eye drop administration, scoring of corneal fluorescent staining, tear secretion measurement, etc., according to the experimental settings.

[5] = 25° C. competition experiment of water activity (suspension and beating, XRPD); format: physicochemical; conditions: competition of crystal form B and crystal form C
Experimental: If the solution was clear, the compound was continued to add until the solution was saturated. […] After addition of a magnetic stir bar, the above suspension sample was placed on a constant temperature mixer (25° C., 700 rpm) for shaking.
And the products obtained with water activity of 0.9 and 1.0 were characterized after drying, and the two were almost the same.

[6] = rats, 1 mg/mL eye drops (G2), D0
[7] = rats, 1 mg/mL eye drops (G2), D14
[8] = rats, 1 mg/mL eye drops (G2), D21
[9] = rats, 5 mg/mL eye drops (G3), D0
[10] = rats, 5 mg/mL eye drops (G3), D14
[11] = rats, 5 mg/mL eye drops (G3), D21
[12] = mice, 1 mg/mL eye drops (G3), D0 (grouping day)
[13] = mice, 1 mg/mL eye drops (G3), D7
[14] = mice, 1 mg/mL eye drops (G3), D12
[15] = mice, 2.5 mg/mL eye drops (G4), D0 (grouping day)
[16] = mice, 2.5 mg/mL eye drops (G4), D7
[17] = mice, 2.5 mg/mL eye drops (G4), D12
[18] = mice, 5 mg/mL eye drops (G5), D0 (grouping day)
[19] = mice, 5 mg/mL eye drops (G5), D7
[20] = mice, 5 mg/mL eye drops (G5), D12

Q: Which “Discomfort in animals after administration of the eye drops” value [1] does the source give for `CC(C)(O)c1ccc(-c2cnc(C(C)(C)O)c(N)c2)cc1N` here?
A: do not cause any discomfort

Q: What about the “Therapeutic effect on the dry eye model of rat (tear secretion amount, corneal damage, tear film breakup time)” value ([2]; eye drops 1 mg/mL, 5 mg/mL) of the same compound?
A: good therapeutic effect

Q: And the “Scoring of fluorescent staining of the cornea” value (from here on “Scoring”) [2, 6]?
A: 0.00 ± 0.00

Q: And the “Tear secretion amount: wetted length of phenol red cotton thread” value (“Tear secretion amount: wetted length” below) [2, 6]?
A: 13.78 ± 5.25 mm

Q: What about the “Scoring” value [2, 7] of the same compound?
A: 4.75 ± 3.73

Q: And the “Tear secretion amount: wetted length” value [2, 7]?
A: 8.12 ± 2.81 mm

Q: What about the “Scoring” value [2, 8] of the same compound?
A: 3.00 ± 2.78

Q: What about the “Tear secretion amount: wetted length” value [2, 8] of the same compound?
A: 9.24 ± 4.07 mm

Q: And the “Scoring” value [2, 9]?
A: 0.13 ± 0.35

Q: What about the “Tear secretion amount: wetted length” value [2, 9] of the same compound?
A: 13.87 ± 4.45 mm

Q: What about the “Scoring” value [2, 10] of the same compound?
A: 3.88 ± 2.36

Q: And the “Tear secretion amount: wetted length” value [2, 10]?
A: 7.16 ± 2.77 mm

Q: And the “Scoring” value [2, 11]?
A: 1.75 ± 1.49

Q: What about the “Tear secretion amount: wetted length” value [2, 11] of the same compound?
A: 11.37 ± 3.26 mm

Q: What about the “Tear film breakup time” value ([2]; rats, eye drops) of the same compound?
A: improved

Q: And the “Crystal Form” value ([3]; 25° C./92.5% RH (open), 5 days)?
A: Crystal Form B

Q: What about the “Crystal Form” value ([3]; 25° C./92.5% RH (open), 10 days) of the same compound?
A: Crystal Form B

Q: What about the “Crystal Form” value ([3]; 40° C. (open), 1 month) of the same compound?
A: Crystal Form B

Q: What about the “Crystal Form” value ([3]; 40° C. (open), 10 days) of the same compound?
A: Crystal Form B

Q: And the “Crystal Form” value ([3]; 40° C./75% RH (open), 1 month)?
A: Crystal Form B

Q: What about the “Crystal Form” value ([3]; 40° C./75% RH (open), 2 month) of the same compound?
A: Crystal Form B

Q: What about the “Crystal Form” value ([3]; 40° C./75% RH (open), 3 month) of the same compound?
A: Crystal Form B

Q: What about the “Crystal Form” value ([3]; 60° C./75% RH (open), 1 month) of the same compound?
A: Crystal Form B

Q: What about the “Crystal Form” value ([3]; 60° C./75% RH (open), 2 month) of the same compound?
A: Crystal Form B

Q: And the “Crystal Form” value ([3]; 60° C./75% RH (open), 3 month)?
A: Crystal Form B

Q: And the “Stability of the crystal form (conclusion)” value ([3]; influencing factors 10 days, 40° C. 1 month, 40° C./75% RH and 60° C./75% RH 3 months)?
A: stable

Q: And the “Crystal Form” value ([3]; light (visible light intensity 5000 lux and ultraviolet intensity 90 W/cm^2, open), 10 days)?
A: Crystal Form B

Q: And the “Crystal Form” value ([3]; light control, 10 days)?
A: Crystal Form B

Q: What about the “Therapeutic effect on the dry eye model of mice (tear secretion amount and corneal damage)” value ([4]; eye drops 1 mg/mL, 2.5 mg/mL, 5 mg/mL) of the same compound?
A: good therapeutic effect

Q: What about the “Scoring” value [4, 12] of the same compound?
A: 0.50 ± 0.97

Q: What about the “Tear secretion amount: wetted length” value [4, 12] of the same compound?
A: 4.54 ± 1.84 mm

Q: And the “Scoring” value [4, 13]?
A: 2.56 ± 1.50##**&

Q: What about the “Tear secretion amount: wetted length” value [4, 13] of the same compound?
A: 2.13 ± 0.69##**& mm

Q: And the “Scoring” value [4, 14]?
A: 2.31 ± 1.35##**&

Q: What about the “Tear secretion amount: wetted length” value [4, 14] of the same compound?
A: 2.72 ± 0.91##**&& mm

Q: And the “Scoring” value [4, 15]?
A: 0.31 ± 0.87

Q: And the “Tear secretion amount: wetted length” value [4, 15]?
A: 4.30 ± 1.08 mm

Q: And the “Scoring” value [4, 16]?
A: 2.88 ± 2.53

Q: And the “Tear secretion amount: wetted length” value [4, 16]?
A: 2.14 ± 0.69##**& mm

Q: And the “Scoring” value [4, 17]?
A: 2.56 ± 1.55

Q: What about the “Tear secretion amount: wetted length” value [4, 17] of the same compound?
A: 2.58 ± 0.82##**& mm

Q: And the “Scoring” value [4, 18]?
A: 0.25 ± 0.58

Q: And the “Tear secretion amount: wetted length” value [4, 18]?
A: 4.28 ± 1.41 mm

Q: What about the “Scoring” value [4, 19] of the same compound?
A: 2.38 ± 2.09##**&

Q: What about the “Tear secretion amount: wetted length” value [4, 19] of the same compound?
A: 2.73 ± 0.48##**&& mm

Q: What about the “Scoring” value [4, 20] of the same compound?
A: 2.38 ± 1.20##**&

Q: And the “Tear secretion amount: wetted length” value [4, 20]?
A: 2.85 ± 0.57##**&& mm

Q: And the “Concentration of eye drops with the best therapeutic effect” value ([4]; mice, combining tear secretion amount and corneal staining score)?
A: 5 mg/mL

Q: And the “Relative stability of crystal forms (conclusion)” value [5]?
A: more stable than the crystal form C of the compound of formula (I)
